The text below walks through data of patent US20220041582A1, “ISOXAZOLINE COMPOUNDS FOR CONTROLLING INVERTEBRATE PESTS” (FMC Corporation, priority 2018, published 2022).

Usually mortality stands for the share of the test organisms that died.

Holding throughout (type): in vivo
In test [1] the test system is green peach aphid (Myzus persicae (Sulzer)). In words: Test E: control of green peach aphid through contact and/or systemic means. The settings on record: 144 h. How it is done: (§1) Formulation and Spray Methodology for Tests A-H
(§2) Test compounds were formulated using a solution containing 10% acetone, 90% water and 300 ppm Activator 90® non-ionic surfactant (Loveland Products, Loveland, Colo., USA). The formulated compounds were applied in 1 mL of liquid through an atomizer nozzle positioned 1.27 cm (0.5 inches) above the top of each test unit. Test compounds were sprayed at the rates indicated, and each test was replicated three times.
For evaluating control of green peach aphid (Myzus persicae (Sulzer)) through contact and/or systemic means, the test unit consisted of a small open container with a 12-15-day-old radish plant inside. This was pre-infested by placing on a leaf of the test plant 30-40 aphids on a piece of leaf excised from a culture plant (cut-leaf method). The aphids moved onto the test plant as the leaf piece desiccated. After pre-infestation, the soil of the test unit was covered with a layer of sand.
Test compounds were formulated and sprayed at 250, 50 and 10 ppm. After spraying of the formulated test compound, each test unit was allowed to dry for 1 hour and then a black, screened cap was placed on top. The test units were held for 6 days in a growth chamber at 19-21° C. and 50-70% relative humidity. Each test unit was then visually assessed for insect mortality.

Test [2] concerns cotton melon aphid (Aphis gossypii (Glover)). In words: Test F: control of cotton melon aphid through contact and/or systemic means. The settings on record: 144 h. The method, then: as §1, §2
[…] This was pre-infested with 30-40 insects on a piece of leaf according to the cut-leaf method, and the soil of the test unit was covered with a layer of sand.
Test compounds were formulated and sprayed at 250, 50 and 10 ppm. After spraying, the test units were maintained in a growth chamber for 6 days at 19° C. and 70% relative humidity. Each test unit was then visually assessed for insect mortality.

Test [3] has as its system potato leafhopper (Empoasca fabae (Harris)). Nature of the test: Test D: control of potato leafhopper through contact and/or systemic means. Particulars: 144 h. How it is done:
as §1, §2
[…] White sand was added to the top of the soil, and one of the primary leaves was excised prior to application of the test compound.
Test compounds were formulated and sprayed at 250, 50 and 10 ppm. After spraying of the formulated test compound, the test units were allowed to dry for 1 hour before they were post-infested with 5 potato leafhoppers (18-to-21-day-old adults). A black, screened cap was placed on the top of the test unit, and the test units were held for 6 days in a growth chamber at 20° C. and 70% relative humidity. Each test unit was then visually assessed for insect mortality.

In test [4] the test system is sweetpotato whitefly (Bemisia tabaci (Gennadius)). In words: Test G: control of sweetpotato whitefly through contact and/or systemic means. The settings on record: 312 h. How it is done: as §1, §2
For evaluating control of the sweetpotato whitefly (Bemisia tabaci (Gennadius)) through contact and/or systemic means, the test unit consisted of a small open container with a 12-14-day-old cotton plant inside. Prior to the spray application, both cotyledons were removed from the plant, leaving one true leaf for the assay. Adult whiteflies were allowed to lay eggs on the plant and then were removed from the test unit. Cotton plants infested with at least 15 eggs were submitted to the test for spraying.
Test compounds were formulated and sprayed at 250, 50 and 10 ppm. After spraying, the test units were allowed to dry for 1 hour. The cylinders were then removed, and the units were taken to a growth chamber and held for 13 days at 28° C. and 50-70% relative humidity. Each test unit was then visually assessed for insect mortality.

Where [5] appears, read: 10 ppm spray, 6 days, read-out: mortality.
The mark [6] stands for this setting: 50 ppm spray, 6 days, read-out: mortality.

Read-outs that look alike come from different tables or passages of the source.

Consider `O=C(NCC1CC1)c1ccc(C2=NOC(c3cccc(C(F)(F)F)c3)(C(F)(F)F)C2)c2ccncc12` (racemic) [Compound 17, N-(cyclopropylmethyl)-5-[4,5-dihydro-5-(trifluoromethyl)-5-[3-(trifluoromethyl)phenyl]-3-isoxazolyl]-8-isoquinolinecarboxamide], for which the mortality at 10 ppm in test [1] (setting [5]) and in test [2] (setting [5]) was ≥ 80% throughout. In addition, the mortality at 50 ppm in test [1] (setting [6]) and in test [2] (setting [6]) was ≥ 80% each time.
Take `CC(C)(C)NC(=O)c1ccc(C2=NOC(c3cc(Cl)c(F)c(Cl)c3)(C(F)(F)F)C2)c2ccncc12` (stereo not shown) [Compound 2, 5-[5-(3,5-dichloro-4-fluorophenyl)-4,5-dihydro-5-(trifluoromethyl)-3-isoxazolyl]-N-(1,1-dimethylethyl)-8-isoquinolinecarboxamide]: the mortality at 50 ppm was ≥ 80% in test [1], ≥ 80% in test [3], ≥ 50% in test [4] and ≥ 80% in test [2]. For the same molecule, the mortality at 250 ppm in test [1] was ≥ 80%; in test [3], ≥ 80%; in test [4], ≥ 50%; in test [2], ≥ 80%. The results for the mortality at 10 ppm in test [4] and in test [2] were ≥ 50% and ≥ 80%, respectively.
On to `O=C(NCC1CC1)c1ccc(C2=NOC(c3cc(Cl)c(F)c(Cl)c3)(C(F)(F)F)C2)c2ccncc12` (stereo not shown) [Compound 3, N-(cyclopropylmethyl)-5-[5-(3,5-dichloro-4-fluorophenyl)-4,5-dihydro-5-(trifluoromethyl)-3-isoxazolyl]-8-isoquinolinecarboxamide], for which the mortality at 10 ppm in test [1] is ≥ 80%; in test [4] it was ≥ 50%; in test [2] it was ≥ 80%. Moreover, the figures for the mortality at 50 ppm in test [1], in test [4] and in test [2] were ≥ 80%, ≥ 50% and ≥ 80%, respectively.
In the case of `O=C(NCc1cnccn1)c1ccc(C2=NOC(c3cc(Cl)c(F)c(Cl)c3)(C(F)(F)F)C2)c2ccncc12` (stereo not shown) [Compound 7], the mortality at 50 ppm in test [1] was ≥ 80%; in test [3], ≥ 80%; in test [4] it was ≥ 50%; in test [2], ≥ 80%.
In the case of `CSC[C@@H](C)NC(=O)c1ccc(C2=NOC(c3cc(Cl)c(F)c(Cl)c3)(C(F)(F)F)C2)c2ccncc12` (stereo partly shown) [Compound 8], in test [2], the mortality at 50 ppm was ≥ 80%.
In the case of `N#CC1(CNC(=O)c2ccc(C3=NOC(c4cc(Cl)c(F)c(Cl)c4)(C(F)(F)F)C3)c3ccncc23)CC1` (stereo not shown) [Compound 10], the mortality at 50 ppm in test [1] is ≥ 80%; in test [3], ≥ 80%; in test [4], ≥ 50%; in test [2], ≥ 80%. Further, the mortality at 10 ppm in test [4] is ≥ 50%.
With `C[S+]([O-])CCNC(=O)c1ccc(C2=NOC(c3cc(Cl)c(F)c(Cl)c3)(C(F)(F)F)C2)c2ccncc12` (stereo not shown) [Compound 11], the mortality at 50 ppm in test [1], in test [3] and in test [2] was ≥ 80% in each case. In addition, in test [3], the mortality at 10 ppm was ≥ 80%.
`CS(=O)(=O)CCNC(=O)c1ccc(C2=NOC(c3cc(Cl)c(F)c(Cl)c3)(C(F)(F)F)C2)c2ccncc12` (stereo not shown) [Compound 12]: the mortality at 50 ppm in test [2] is ≥ 80%.
Take `C[C@H](C[S+](C)[O-])NC(=O)c1ccc(C2=NOC(c3cc(Cl)c(F)c(Cl)c3)(C(F)(F)F)C2)c2ccncc12` (stereo partly shown) [Compound 14]: the mortality at 50 ppm in test [3] is ≥ 80%.
Take `O=C(NC1CC1)c1ccc(C2=NOC(c3cccc(C(F)(F)F)c3)(C(F)(F)F)C2)c2ccncc12` (stereo not shown) [Compound 16, N-cyclopropyl-5-[4,5-dihydro-5-(trifluoromethyl)-5-[3-(trifluoromethyl)phenyl]-3-isoxazolyl]-8-isoquinolinecarboxamide]: in test [1] (setting [6]), the mortality at 50 ppm was ≥ 80%.
In the case of `CS(=O)(=O)CCNC(=O)c1ccc(C2=NOC(c3cccc(C(F)(F)F)c3)(C(F)(F)F)C2)c2ccncc12` (stereo not shown) [Compound 19], the mortality at 50 ppm in test [4] (50 ppm spray, 13 days, read-out: mortality) was ≥ 50%; in test [2] (setting [6]) it was ≥ 80%.
As to `CS(=O)(=O)N1CC(NC(=O)c2ccc(C3=NOC(c4cc(Cl)c(F)c(Cl)c4)(C(F)(F)F)C3)c3ccncc23)C1` (stereo not shown) [Compound 21, 5-[5-(3,5-dichloro-4-fluorophenyl)-4,5-dihydro-5-(trifluoromethyl)-3-isoxazolyl]-N-[1-(methylsulfonyl)-3-azetidinyl]-8-isoquinolinecarboxamide], the mortality at 50 ppm is ≥ 80% in test [3], ≥ 50% in test [4] and ≥ 80% in test [2].
Take `O=C(NC1CC1)c1ccc(C2=NOC(c3cc(Cl)c(F)c(Cl)c3)(C(F)(F)F)C2)c2ccncc12` (stereo not shown) [Compound 23, N-cyclopropyl-5-[5-(3,5-dichloro-4-fluorophenyl)-4,5-dihydro-5-(trifluoromethyl)-3-isoxazolyl]-8-isoquinolinecarboxamide]: the mortality at 10 ppm in test [1] and in test [2] was ≥ 80% throughout. Besides, the mortality at 50 ppm in test [1], in test [3] and in test [2] was ≥ 80% in each case.
Consider `C[C@@H](NC(=O)c1ccc(C2=NOC(c3cccc(C(F)(F)F)c3)(C(F)(F)F)C2)c2ccncc12)C(N)=O` (stereo partly shown) [Compound 25], for which the mortality at 50 ppm in test [2] (setting [6]) was ≥ 80%.
Regarding `O=C(NCC1CCCO1)c1ccc(C2=NOC(c3cc(Cl)c(F)c(Cl)c3)(C(F)(F)F)C2)c2ccncc12` (stereo not shown) [Compound 26], the mortality at 50 ppm is ≥ 50% in test [4] and ≥ 80% in test [2].
On to `CNC(=O)c1ccc(C2=NOC(c3cc(Cl)c(F)c(Cl)c3)(C(F)(F)F)C2)c2ccncc12` (stereo not shown) [Compound 27], for which the mortality at 50 ppm in test [1] and in test [2] was ≥ 80% in each case.
As for `C[S+]([O-])CCNC(=O)c1ccc(C2=NOC(c3cccc(C(F)(F)F)c3)(C(F)(F)F)C2)c2ccncc12` (stereo not shown) [Compound 30], the mortality at 50 ppm in test [2] (setting [6]) was ≥ 80%.
For `C[C@@H](NC(=O)c1ccc(C2=NOC(c3cc(Cl)cc(C(F)(F)F)c3)(C(F)(F)F)C2)c2ccncc12)C(N)=O` (stereo partly shown) [Compound 40], the mortality at 50 ppm in test [2] is ≥ 80%.
For `O=C(NC1CSC1)c1ccc(C2=NOC(c3cc(Cl)c(F)c(Cl)c3)(C(F)(F)F)C2)c2ccncc12` (stereo not shown) [Compound 43], the mortality at 50 ppm in test [3] and in test [2] was ≥ 80% in each case.
With `CCNC(=O)c1ccc(C2=NOC(c3cc(Cl)c(F)c(Cl)c3)(C(F)(F)F)C2)c2ccncc12` (stereo not shown) [Compound 46, 5-[5-(3,5-dichloro-4-fluorophenyl)-4,5-dihydro-5-(trifluoromethyl)-3-isoxazolyl]-N-ethyl-8 soquinolinecarboxamide], in test [2], the mortality at 10 ppm was ≥ 80% and the mortality at 50 ppm is ≥ 80%.
Take `C[C@@H](NC(=O)c1ccc(C2=NOC(c3cc(Cl)c(F)c(Cl)c3)(C(F)(F)F)C2)c2ccncc12)C(=O)NCC(F)(F)F` (stereo partly shown) [Compound 56]: the mortality at 50 ppm is ≥ 80% in test [1], ≥ 50% in test [4] and ≥ 80% in test [2].
For `C[C@H](CSCC(F)(F)F)NC(=O)c1ccc(C2=NOC(c3cc(Cl)c(F)c(Cl)c3)(C(F)(F)F)C2)c2ccncc12` (stereo partly shown) [Compound 62], the mortality at 50 ppm is ≥ 80% in test [3], ≥ 50% in test [4] and ≥ 80% in test [2].
Regarding `O=C(NC1CC1)c1ccc(C2=NOC(c3cc(Cl)cc(Cl)c3)(C(F)(F)F)C2)c2ccncc12` (stereo not shown) [Compound 70, N-cyclopropyl-5-[5-(3,5-dichlorophenyl)-4,5-dihydro-5-(trifluoromethyl)-3-isoxazolyl]-8-isoquinolinecarboxamide], the mortality at 50 ppm in test [1], in test [3] and in test [2] was ≥ 80% each time. For the same molecule, the mortality at 10 ppm in test [2] is ≥ 80%.
Take `O=C(NC1CC1)c1ccc(C2=NO[C@@](c3cc(Cl)c(F)c(Cl)c3)(C(F)(F)F)C2)c2ccncc12` [Compound 82, S—N-cyclopropyl-5-[5-(3,5-dichloro-4-fluorophenyl)-4,5-dihydro-5-(trifluoromethyl)-3-isoxazolyl]-8-isoquinolinecarboxamide]: the mortality at 10 ppm in test [1] and in test [2] was ≥ 80% each time. Further, the mortality at 50 ppm in test [1], in test [3] and in test [2] was ≥ 80% throughout.
